Measurements: patent publication US8242086B2, “Methods and compositions for treating disorders caused by a deficiency in a gene product of a CLN gene” (Duke University, priority 2008, dated 2012)

Tests used:
[1] = molecular target: T1, wild-type CLN3p (Homo sapiens, UniProt Q13286); assay: Protein-lipid overlay assay, wild-type CLN3p; format: binding
T1 construct: expressed in transfected cells; host or cells: fibroblasts overexpressing CLN3p (AC1 cells)
T1 sequence (Q13286 1-438): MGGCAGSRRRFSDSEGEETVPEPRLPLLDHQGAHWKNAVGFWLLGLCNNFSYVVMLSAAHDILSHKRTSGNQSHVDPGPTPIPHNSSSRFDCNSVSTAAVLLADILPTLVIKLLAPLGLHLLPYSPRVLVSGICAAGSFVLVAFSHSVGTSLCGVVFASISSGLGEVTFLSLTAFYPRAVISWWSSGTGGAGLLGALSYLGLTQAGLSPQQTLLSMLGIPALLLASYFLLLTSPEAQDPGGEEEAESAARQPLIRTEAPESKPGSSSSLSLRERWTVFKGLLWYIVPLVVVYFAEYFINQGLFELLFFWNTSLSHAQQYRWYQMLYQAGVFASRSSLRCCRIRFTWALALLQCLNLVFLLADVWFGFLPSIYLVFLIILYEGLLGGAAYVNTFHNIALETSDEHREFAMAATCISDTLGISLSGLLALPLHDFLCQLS
Protocol: (§1) Protein-lipid overlay assay. Membrane arrays (SPHINGOSTRIPS (Echelon Research Laboratories, Salt Lake City, Utah), or lipids were spotted on nitrocellulose membranes and dried for at least one hour. Membranes were blocked with 3% (wt/vol) Fatty Acid Free or FFA-BSA (Sigma-Aldrich, St. Louis, Mo.) in Tris-Buffered Saline Tween-20 (TBST) [150 mM NaCl/10 mM Tris.HCl (pH 8.0), and 0.1% (vol/vol) Tween-20] for 1 h at RT. Blocked membranes were incubated for 8 h at 4° C. with 2 mg/ml of total cell lysate.
(§2) Fibroblasts overexpressing CLN3p (AC1 cells) and JNCL fibroblasts were used for the GalCer-CLN3 binding assay. The membranes were then washed five times for 5 min each with TBST. After washing, membranes were incubated with anti-CLN3, CLN1, CLN2, CLN6 or CLN8-antibodies overnight at 1:1000 dilution, followed by additional washing and incubation with horseradish peroxidase-conjugated anti-rabbit IgG goat antibody for 1 h at RT. After a final washing, enhanced chemiluminescence was used to detect binding of NCL proteins to sphingolipids. Intensity values were computed with an ImageJ software program.
Binding of CLN3 to GalCer and sulfatide. Membranes impregnated with sphingolipids were overlaid with protein cell lysates from CLN3-overexpressing and JNCL cells. Anti-CLN3 antibody was used to evaluate binding. […] The signal for GalCer-wild-type CLN3p binding was weaker because the more polar sulfatide competes with the less polar GalCer for binding to wild-type CLN3p.

[2] = molecular target: T2, CLN6 protein (Homo sapiens, UniProt Q9NWW5); assay: Protein-lipid overlay assay, CLN6 protein; format: binding; conditions: lysates from normal cells, custom made sphingostrips
T2 construct: endogenous in cells
T2 sequence (Q9NWW5 1-311): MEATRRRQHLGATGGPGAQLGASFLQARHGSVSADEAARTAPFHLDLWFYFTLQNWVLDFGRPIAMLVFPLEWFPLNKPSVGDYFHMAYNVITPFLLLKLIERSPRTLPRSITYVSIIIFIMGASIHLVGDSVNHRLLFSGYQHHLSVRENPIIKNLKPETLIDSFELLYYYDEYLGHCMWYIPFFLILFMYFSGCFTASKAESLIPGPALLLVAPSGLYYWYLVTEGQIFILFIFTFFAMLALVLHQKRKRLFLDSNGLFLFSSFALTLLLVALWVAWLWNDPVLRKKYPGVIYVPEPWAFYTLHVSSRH
Protocol: as §1, §2
CLN1, CLN2, CLN6, CLN8 and CLN9 proteins also bind to lipids. The protein-lipid overlay assay, using custom made sphingostrips, lysates from normal cells and anti-CLN1, anti-CLN2-, anti-CLN6, and anti-CLN8-antibodies, established that CLN6 and CLN8 proteins bind to GalCer, CLN1, CLN2 and CLN6p bind lysophosphatidic acid (LPA) and sulfatide, and CLN8p binds ceramide (FIG. 5).

[3] = system: CLN8 protein; assay: Protein-lipid overlay assay, CLN8 protein; format: binding; conditions: lysates from normal cells, custom made sphingostrips
Protocol: as §1, §2
CLN1, CLN2, CLN6, CLN8 and CLN9 proteins also bind to lipids. […]

[4] = system: CLN3 knockdown NT2 cells; assay: Cell apoptosis rate in CLN3 knockdown NT2 cells, propidium iodide; format: cell-based, human; conditions: GalCer 50 ng/ml, 3 days after transfection
Protocol: Cell Culture and Cell Treatment. NT2 neuronal precursor cells (ATCC cat no. CRL 1973) were grown in DMEM supplemented with 1% sodium pyruvate, L-glutamine and antibiotics and incubated in 37 C and 5% CO2 for 3 days.
siRNA knockdown of CLN3 in NT2 cells. HS1 siRNA ([…]) for CLN3 knockdown was designed using BLOCK-iT RNA™ Designer (Invitrogen). […] siRNA and scrambled universal negative control siRNA oligonucleotides were transfected into wild type NT2 cells using Lipofectamine RNAiMax™ according to manufacturer's protocol. In brief, […] HS1 RNAi duplex or scrambled siRNA universal negative control were diluted in 50 μl DMEM medium without serum. Lipofectamine™ RNAiMAX was mixed gently before use, then 1 μl was diluted in 50 μl DMEM medium. The diluted RNAi duplexes were combined with the diluted Lipofectamine RNAiMAX and incubated for 10 minutes at room temperature. […]
Determination of cell apoptosis rate in CLN3 knockdown NT2 cells. 10^6 cells transfected with CLN3 siRNA or scrambled siRNA, either treated with 50 ng/ml of GalCer (Avanti Polar Lipids, inc.) or solvent, are suspended in 100 μl PBS, incubated with 100 μl/0.5 mg/ml PI, washed, placed on slides and viewed using a fluorescence microscope. […] Cells in three fields of vision were counted. Percentage of red staining-apoptotic cells/total cells was determined.

[5] = system: CLN3-deficient human NT2 neuronal precursor cells; assay: Lipid raft GalCer in CLN3-deficient NT2 cells after GalCer supplementation; format: cell-based; conditions: exogenous GalCer supplementation
[6] = system: galactosylceramide transferase (GCT); conditions: exogenous supplementation of GalCer; Rusyn E et al., 2008; cited from earlier work
[7] = investigated as a cancer therapy; cited from earlier work

Substance: galactosylceramide [GalCer]
- binding of wild-type CLN3p to membrane spots impregnated with the lipid ([1]; lysate of CLN3-overexpressing cells, anti-CLN3 antibody): bind strongly
- binding of CLN3p to GalCer when sulfatide was omitted from the membrane ([1]; sulfatide omitted, dose dependent): stronger binding
- binding of CLN6 protein to lipid [2]: bind
- binding of CLN8 protein to lipid [3]: bind
- cell death (apoptosis) of CLN3-deficient NT2 cells [4]: significantly reduces cell death
- GalCer in lipid rafts of CLN3-deficient NT2 cells [5]: normalizes GalCer in lipid rafts
- growth defect and increased apoptosis of GalCer synthase knockdown lymphoblasts [6]: remedied
- safety in humans [7]: documented to be safe in humans
